Measured values taken from ChEMBL document CHEMBL1140940, “Pyrido[2,3-d]pyrimidin-5-ones: a novel class of antiinflammatory macrophage colony-stimulating factor-1 receptor inhibitors” (J Med Chem, 2009).

What was measured:
[1] = Metabolic stability in rat liver microsomes after 10 mins; type: ADME, Microsome; conditions: read-out: Stability
[2] = Metabolic stability in human liver microsomes after 10 mins; type: ADME, Microsome; conditions: read-out: Stability
[3] = biological target: Macrophage colony-stimulating factor 1 receptor (Homo sapiens, UniProt P07333)
[4] = biological target: T1, Receptor-type tyrosine-protein kinase FLT3 (Homo sapiens, UniProt P36888); assay: Inhibition of FLT3 by fluorescence polarization competition immunoassay
T1 sequence (P36888 whole entry): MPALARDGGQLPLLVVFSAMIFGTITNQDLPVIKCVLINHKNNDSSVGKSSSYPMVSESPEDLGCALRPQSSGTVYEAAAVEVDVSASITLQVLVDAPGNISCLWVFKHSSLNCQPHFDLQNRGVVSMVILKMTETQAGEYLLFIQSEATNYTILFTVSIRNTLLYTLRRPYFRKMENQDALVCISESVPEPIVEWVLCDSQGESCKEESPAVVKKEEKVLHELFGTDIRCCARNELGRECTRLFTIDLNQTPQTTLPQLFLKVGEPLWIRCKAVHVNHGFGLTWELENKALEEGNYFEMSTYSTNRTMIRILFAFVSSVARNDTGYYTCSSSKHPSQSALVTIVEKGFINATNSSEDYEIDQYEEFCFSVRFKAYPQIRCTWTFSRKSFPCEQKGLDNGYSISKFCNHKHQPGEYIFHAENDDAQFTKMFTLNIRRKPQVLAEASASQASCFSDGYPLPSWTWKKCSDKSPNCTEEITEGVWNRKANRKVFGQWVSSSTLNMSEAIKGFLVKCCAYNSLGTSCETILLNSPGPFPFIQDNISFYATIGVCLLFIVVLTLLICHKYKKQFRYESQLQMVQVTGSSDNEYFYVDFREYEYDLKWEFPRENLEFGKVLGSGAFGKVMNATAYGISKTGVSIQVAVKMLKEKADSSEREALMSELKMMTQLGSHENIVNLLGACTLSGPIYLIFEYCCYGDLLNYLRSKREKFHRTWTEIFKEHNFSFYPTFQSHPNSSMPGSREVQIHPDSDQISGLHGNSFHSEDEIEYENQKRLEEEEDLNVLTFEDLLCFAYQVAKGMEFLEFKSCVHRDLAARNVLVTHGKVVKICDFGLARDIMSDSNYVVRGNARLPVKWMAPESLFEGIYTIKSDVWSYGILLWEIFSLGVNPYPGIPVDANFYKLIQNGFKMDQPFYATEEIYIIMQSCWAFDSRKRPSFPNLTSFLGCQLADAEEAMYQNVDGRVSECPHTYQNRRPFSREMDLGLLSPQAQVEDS

[5] = biological target: Mast/stem cell growth factor receptor Kit (Homo sapiens, UniProt P10721); assay: Inhibition of KIT by fluorescence polarization competition immunoassay
[6] = biological target: Platelet-derived growth factor receptor beta (Homo sapiens, UniProt P09619); assay: Inhibition of PDGFRbeta by fluorescence polarization competition immunoassay
[7] = biological target: T2, Tyrosine-protein kinase receptor UFO (Homo sapiens, UniProt P30530); assay: Inhibition of Axl by fluorescence polarization competition immunoassay
T2 sequence (P30530 whole entry): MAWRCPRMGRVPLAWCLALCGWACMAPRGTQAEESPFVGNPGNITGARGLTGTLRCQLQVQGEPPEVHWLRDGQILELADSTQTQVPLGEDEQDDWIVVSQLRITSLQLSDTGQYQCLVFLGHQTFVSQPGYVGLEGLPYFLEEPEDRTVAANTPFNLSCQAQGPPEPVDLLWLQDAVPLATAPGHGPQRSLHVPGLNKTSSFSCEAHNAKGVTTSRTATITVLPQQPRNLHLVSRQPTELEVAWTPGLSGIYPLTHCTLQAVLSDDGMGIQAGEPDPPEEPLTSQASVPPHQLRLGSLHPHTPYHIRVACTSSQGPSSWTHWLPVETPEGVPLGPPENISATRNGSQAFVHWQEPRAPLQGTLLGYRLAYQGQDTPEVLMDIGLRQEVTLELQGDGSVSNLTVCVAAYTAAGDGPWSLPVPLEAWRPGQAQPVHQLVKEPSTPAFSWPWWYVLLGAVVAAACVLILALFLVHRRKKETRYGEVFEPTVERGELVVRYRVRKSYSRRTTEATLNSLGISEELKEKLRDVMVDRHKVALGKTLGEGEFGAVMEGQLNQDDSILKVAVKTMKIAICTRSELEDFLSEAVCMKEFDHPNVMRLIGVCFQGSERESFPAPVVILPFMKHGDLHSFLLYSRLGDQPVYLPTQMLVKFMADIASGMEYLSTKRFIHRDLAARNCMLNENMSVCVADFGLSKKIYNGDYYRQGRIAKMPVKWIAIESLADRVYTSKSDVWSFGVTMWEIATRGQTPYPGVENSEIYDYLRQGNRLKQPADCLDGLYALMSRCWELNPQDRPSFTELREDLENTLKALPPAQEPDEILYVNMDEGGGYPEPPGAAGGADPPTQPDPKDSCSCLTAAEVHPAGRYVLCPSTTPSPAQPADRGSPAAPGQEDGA

[8] = biological target: High affinity nerve growth factor receptor (Homo sapiens, UniProt P04629); assay: Inhibition of TrkA by fluorescence polarization competition immunoassay
Insulin receptor = Insulin receptor (Homo sapiens, UniProt P06213); assay: Inhibition of IRKbeta by fluorescence polarization competition immunoassay
[9] = biological target: Proto-oncogene tyrosine-protein kinase Src (Homo sapiens, UniProt P12931); assay: Inhibition of Src by fluorescence polarization competition immunoassay
[10] = Half life in Sprague-Dawley rat at 2 mg/kg, iv; type: ADME, organism-based; parameters: dose 2 mg/kg, route intravenous; conditions: in vivo
[11] = Clearance in Sprague-Dawley rat at 2 mg/kg, iv; type: ADME, organism-based; parameters: dose 2 mg/kg, route intravenous; conditions: in vivo
[12] = Volume of distribution at steady state in Sprague-Dawley rat at 2 mg/kg, iv; type: ADME, organism-based; parameters: dose 2 mg/kg, route intravenous; conditions: in vivo, read-out: Vdss
[13] = Oral bioavailability in Sprague-Dawley rat at 10 mg/kg; type: ADME, organism-based; conditions: in vivo
[14] = Cmax in Sprague-Dawley rat at 10 mg/kg, po; type: ADME, organism-based; parameters: dose 10 mg/kg, route oral; conditions: in vivo
[15] = Half life in Sprague-Dawley rat at 10 mg/kg, po; type: ADME, organism-based; parameters: dose 10 mg/kg, route oral; conditions: in vivo
Rattus norvegicus [16] = species on record: Rattus norvegicus; assay: Toxicity in rat assessed as induction of mucoid feces; type: organism-based; conditions: in vivo
Rattus norvegicus [17] = species on record: Rattus norvegicus; assay: Toxicity in rat assessed as induction of cold body; type: organism-based; conditions: in vivo
Rattus norvegicus [18] = species on record: Rattus norvegicus; assay: Toxicity in rat assessed as induction of weight loss; type: organism-based; conditions: in vivo

Chain of Insulin receptor (P06213 28-758 limits assumed): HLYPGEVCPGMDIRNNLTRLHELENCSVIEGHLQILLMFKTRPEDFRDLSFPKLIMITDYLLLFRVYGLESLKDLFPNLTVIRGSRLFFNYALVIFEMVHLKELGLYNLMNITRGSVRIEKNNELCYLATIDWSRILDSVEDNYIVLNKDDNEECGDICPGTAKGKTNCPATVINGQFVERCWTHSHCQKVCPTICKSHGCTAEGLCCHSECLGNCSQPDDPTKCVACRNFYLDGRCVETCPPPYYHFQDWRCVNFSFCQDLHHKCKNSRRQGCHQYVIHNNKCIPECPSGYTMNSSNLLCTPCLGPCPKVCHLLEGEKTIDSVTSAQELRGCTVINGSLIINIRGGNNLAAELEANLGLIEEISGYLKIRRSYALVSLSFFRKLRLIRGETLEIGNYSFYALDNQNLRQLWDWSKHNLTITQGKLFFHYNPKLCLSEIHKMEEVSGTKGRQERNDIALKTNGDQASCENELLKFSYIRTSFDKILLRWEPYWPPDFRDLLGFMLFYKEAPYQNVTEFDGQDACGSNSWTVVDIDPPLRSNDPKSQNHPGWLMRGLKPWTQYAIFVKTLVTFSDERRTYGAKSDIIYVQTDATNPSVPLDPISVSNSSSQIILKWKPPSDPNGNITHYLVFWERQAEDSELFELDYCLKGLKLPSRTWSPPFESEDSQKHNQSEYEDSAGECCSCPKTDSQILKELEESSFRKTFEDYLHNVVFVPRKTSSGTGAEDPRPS
Chain of Insulin receptor (P06213 763-1382 limits assumed): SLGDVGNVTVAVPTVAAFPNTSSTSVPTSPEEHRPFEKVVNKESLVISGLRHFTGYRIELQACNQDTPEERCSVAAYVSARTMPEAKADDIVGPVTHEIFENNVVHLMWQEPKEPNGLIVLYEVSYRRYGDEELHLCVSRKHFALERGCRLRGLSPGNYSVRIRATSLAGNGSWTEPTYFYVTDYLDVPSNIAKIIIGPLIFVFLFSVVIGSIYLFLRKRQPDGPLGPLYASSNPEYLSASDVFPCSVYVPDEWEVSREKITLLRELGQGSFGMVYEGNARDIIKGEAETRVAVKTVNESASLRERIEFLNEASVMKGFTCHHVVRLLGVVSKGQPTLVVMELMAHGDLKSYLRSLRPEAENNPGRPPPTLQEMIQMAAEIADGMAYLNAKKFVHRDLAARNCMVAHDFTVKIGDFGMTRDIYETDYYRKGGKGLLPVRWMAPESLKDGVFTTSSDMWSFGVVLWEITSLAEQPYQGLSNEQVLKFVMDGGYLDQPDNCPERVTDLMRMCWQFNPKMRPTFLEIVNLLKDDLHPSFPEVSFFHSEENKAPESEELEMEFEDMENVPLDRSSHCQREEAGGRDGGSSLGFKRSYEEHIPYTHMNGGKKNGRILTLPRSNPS
Chain of High affinity nerve growth factor receptor (P04629 whole entry): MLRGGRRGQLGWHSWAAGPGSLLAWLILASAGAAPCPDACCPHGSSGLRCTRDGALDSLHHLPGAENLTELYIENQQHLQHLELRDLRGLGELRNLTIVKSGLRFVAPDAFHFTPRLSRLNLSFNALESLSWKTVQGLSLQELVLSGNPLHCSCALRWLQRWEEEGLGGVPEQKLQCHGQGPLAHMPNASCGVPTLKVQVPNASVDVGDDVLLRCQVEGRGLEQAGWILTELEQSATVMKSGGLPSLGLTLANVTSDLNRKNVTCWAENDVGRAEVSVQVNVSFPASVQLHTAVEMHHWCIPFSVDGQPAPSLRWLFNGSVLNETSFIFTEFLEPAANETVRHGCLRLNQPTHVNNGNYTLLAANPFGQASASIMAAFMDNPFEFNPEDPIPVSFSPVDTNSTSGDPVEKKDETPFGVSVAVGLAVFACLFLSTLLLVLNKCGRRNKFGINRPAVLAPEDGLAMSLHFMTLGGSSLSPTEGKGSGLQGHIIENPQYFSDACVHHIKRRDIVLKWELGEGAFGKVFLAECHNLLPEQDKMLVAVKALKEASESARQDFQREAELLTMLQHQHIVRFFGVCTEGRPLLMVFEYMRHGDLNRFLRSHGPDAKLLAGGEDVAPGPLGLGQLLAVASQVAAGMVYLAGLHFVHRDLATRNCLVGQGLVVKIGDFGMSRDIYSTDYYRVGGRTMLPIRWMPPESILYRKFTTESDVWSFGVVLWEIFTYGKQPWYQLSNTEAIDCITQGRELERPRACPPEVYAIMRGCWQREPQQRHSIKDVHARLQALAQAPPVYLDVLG
Chain of Macrophage colony-stimulating factor 1 receptor (P07333 whole entry): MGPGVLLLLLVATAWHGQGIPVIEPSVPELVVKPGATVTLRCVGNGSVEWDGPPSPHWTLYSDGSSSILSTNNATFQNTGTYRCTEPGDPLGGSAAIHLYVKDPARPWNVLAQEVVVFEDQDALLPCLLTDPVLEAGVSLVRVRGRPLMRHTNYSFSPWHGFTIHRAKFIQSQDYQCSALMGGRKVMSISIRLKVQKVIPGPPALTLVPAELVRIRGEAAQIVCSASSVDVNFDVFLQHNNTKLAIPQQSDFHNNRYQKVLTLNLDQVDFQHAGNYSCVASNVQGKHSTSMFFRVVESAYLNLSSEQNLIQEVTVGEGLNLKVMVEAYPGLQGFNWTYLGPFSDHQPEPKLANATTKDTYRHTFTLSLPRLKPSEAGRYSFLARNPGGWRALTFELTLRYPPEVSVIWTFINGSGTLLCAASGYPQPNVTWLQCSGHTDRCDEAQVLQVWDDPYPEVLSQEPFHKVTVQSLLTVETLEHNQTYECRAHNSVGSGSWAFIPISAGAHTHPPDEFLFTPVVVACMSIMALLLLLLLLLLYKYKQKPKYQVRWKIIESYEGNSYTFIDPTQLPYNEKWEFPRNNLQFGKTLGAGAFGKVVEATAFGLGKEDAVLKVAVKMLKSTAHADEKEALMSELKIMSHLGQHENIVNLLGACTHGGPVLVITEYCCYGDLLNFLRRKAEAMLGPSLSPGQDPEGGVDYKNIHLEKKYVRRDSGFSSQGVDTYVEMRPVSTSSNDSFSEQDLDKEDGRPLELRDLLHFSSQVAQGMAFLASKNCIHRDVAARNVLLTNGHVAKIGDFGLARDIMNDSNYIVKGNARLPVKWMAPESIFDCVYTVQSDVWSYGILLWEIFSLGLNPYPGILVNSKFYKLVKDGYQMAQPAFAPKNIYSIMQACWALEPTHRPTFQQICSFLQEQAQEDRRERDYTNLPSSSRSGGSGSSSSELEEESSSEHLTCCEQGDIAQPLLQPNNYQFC
Chain of Proto-oncogene tyrosine-protein kinase Src (P12931 2-536 limits assumed): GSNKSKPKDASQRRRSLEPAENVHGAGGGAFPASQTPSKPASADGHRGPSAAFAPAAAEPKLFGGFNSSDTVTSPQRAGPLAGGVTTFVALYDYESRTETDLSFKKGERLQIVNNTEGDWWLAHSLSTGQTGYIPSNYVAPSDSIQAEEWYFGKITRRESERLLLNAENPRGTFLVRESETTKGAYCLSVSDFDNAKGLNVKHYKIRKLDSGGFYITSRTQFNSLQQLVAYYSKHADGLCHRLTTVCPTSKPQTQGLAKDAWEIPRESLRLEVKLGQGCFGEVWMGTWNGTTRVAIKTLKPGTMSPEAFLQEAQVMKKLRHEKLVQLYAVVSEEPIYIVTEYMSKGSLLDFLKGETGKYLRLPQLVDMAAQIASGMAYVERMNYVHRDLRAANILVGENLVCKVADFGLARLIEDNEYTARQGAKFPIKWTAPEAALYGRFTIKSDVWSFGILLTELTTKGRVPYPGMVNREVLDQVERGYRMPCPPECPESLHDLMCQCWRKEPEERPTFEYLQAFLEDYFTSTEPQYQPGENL
Chain of Platelet-derived growth factor receptor beta (P09619 whole entry): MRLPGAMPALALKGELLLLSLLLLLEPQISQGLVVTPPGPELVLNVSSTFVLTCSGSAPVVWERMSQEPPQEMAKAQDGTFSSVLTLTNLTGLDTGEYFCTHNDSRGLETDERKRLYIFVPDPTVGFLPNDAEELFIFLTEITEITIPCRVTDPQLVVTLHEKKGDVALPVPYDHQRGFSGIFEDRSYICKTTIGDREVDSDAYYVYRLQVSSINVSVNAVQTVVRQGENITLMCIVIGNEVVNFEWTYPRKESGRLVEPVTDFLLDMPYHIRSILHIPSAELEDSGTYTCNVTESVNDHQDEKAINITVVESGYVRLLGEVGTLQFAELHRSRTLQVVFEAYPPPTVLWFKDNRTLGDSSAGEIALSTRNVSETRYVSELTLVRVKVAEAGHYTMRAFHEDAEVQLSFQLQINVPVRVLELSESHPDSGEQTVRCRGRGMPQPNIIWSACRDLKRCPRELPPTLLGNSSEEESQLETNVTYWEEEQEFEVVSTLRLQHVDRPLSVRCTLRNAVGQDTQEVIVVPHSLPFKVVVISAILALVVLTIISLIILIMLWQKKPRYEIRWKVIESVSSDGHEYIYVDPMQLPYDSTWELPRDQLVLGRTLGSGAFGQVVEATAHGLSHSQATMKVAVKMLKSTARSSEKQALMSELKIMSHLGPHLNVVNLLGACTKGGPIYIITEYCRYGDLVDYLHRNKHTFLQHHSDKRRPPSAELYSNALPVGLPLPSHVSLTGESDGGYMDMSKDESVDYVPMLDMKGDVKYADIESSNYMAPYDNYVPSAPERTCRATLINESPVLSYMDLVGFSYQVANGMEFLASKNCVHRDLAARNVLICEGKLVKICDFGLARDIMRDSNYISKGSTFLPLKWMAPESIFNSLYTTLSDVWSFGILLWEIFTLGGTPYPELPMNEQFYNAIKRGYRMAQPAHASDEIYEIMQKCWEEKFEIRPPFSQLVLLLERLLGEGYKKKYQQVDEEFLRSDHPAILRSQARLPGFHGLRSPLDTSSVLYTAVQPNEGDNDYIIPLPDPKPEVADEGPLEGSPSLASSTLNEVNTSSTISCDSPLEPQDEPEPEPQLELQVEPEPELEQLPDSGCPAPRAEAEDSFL

Row | SMILES | remaining at 10 min [1] [%] | remaining at 10 min [2] [%] | IC50 [3] [nM] | half-life [10] [h] | clearance [11] [mL/min/kg] | Vd [12] [L/kg] | bioavailability [13] [%] | further results
1 | CONC(=O)c1cn(-c2ccc3c(c2)CCC3)c2nc(Nc3ccc(CCN4CCN(C)C(=O)C4)cc3)ncc2c1=O | 29 | 2.8 | 0.8 | – | – | – | – | –
2 | CN1CCN(CCc2ccc(Nc3ncc4c(=O)c(C(N)=O)cn(-c5ccc6c(c5)CCC6)c4n3)cc2)CC1 | 96 | – | – | 7 | 25 | 15.5 | 0 | IC50 [4]: 1 nM; IC50 [5]: 20 nM; IC50 [6]: > 42000 nM; IC50 [7]: > 500 nM; IC50 [8]: 170 nM; IC50 (Insulin receptor): > 42000 nM; IC50 [9]: 5900 nM
3 | CCc1ccc(-n2cc(C(=O)NOC)c(=O)c3cnc(Nc4ccc(C5CCN(C)CC5)cc4)nc32)cc1 | 96 | 75 | – | 8 | 8 | 5.9 | 103 | Cmax [14]: 3400 nM; half-life [15]: 8.1 h; Activity (Rattus norvegicus [16]): Non-toxic; Activity (Rattus norvegicus [17]): Non-toxic; Activity (Rattus norvegicus [18]): Non-toxic
4 | CC(C)ONC(=O)c1cn(-c2ccc3c(c2)CCC3)c2nc(Nc3ccc(CCN4CCN(C)CC4)cc3)ncc2c1=O | 100 | – | 0.5 | – | – | – | – | –
5 | CONC(=O)c1cn(-c2ccc3c(c2)CCC3)c2nc(Nc3ccc(CCN4CCC(F)(F)CC4)cc3)ncc2c1=O | 86 | 83 | – | – | – | – | – | –
6 | CCNC(=O)c1cn(-c2ccc3c(c2)CCC3)c2nc(Nc3ccc(CCN4CCN(C)CC4)cc3)ncc2c1=O | – | – | 3.2 | – | – | – | – | –
7 | CONC(=O)c1cn(-c2ccc3c(c2)CCC3)c2nc(Nc3ccc(C4CCN(CC(=O)O)CC4)cc3)ncc2c1=O | 99 | 100 | – | 1.7 | 38 | 5.1 | 0 | IC50 [4]: 41 nM; IC50 [5]: 13 nM; IC50 [6]: > 2000 nM; IC50 [7]: > 500 nM; IC50 [8]: > 500 nM; IC50 (Insulin receptor): 9300 nM; IC50 [9]: 930 nM
8 | CCN1CCCC(O)(c2cccc(Nc3ncc4c(=O)c(C(=O)NOC)cn(-c5ccc6c(c5)CCC6)c4n3)c2)C1 (centres undefined) | 89 | 88 | – | 5.2 | 20.4 | 5.6 | 28 | Cmax [14]: 400 nM
9 | CONC(=O)c1cn(C2CCC(C)(C)CC2)c2nc(Nc3ccc(C4CCN(C)CC4)cc3)ncc2c1=O | 97 | 93 | – | – | – | – | – | –
10 | CCCCNc1ncc2c(=O)c(C(=O)NOC)cn(-c3ccc4c(c3)CCC4)c2n1 | – | – | 15 | – | – | – | – | –
11 | CONC(=O)c1cn(C2CCCCC2)c2nc(Nc3ccc(C4CCN(C)CC4)cc3)ncc2c1=O | 68 | 96 | 5 | – | – | – | – | –
12 | CONC(=O)c1cn(-c2ccc3c(c2)CCC3)c2nc(Nc3ccc(CCN4CCNC(=O)C4)cc3)ncc2c1=O | 69 | 35 | – | 6 | 10 | 0.8 | 3 | Cmax [14]: 80 nM; half-life [15]: 9.7 h
13 | CONC(=O)c1cn(-c2ccc3c(c2)CCC3)c2nc(Nc3ccc(C4CCNCC4)cc3)ncc2c1=O | 93 | 97 | 0.5 | – | – | – | – | –
14 | CONC(=O)c1cn(-c2ccc3c(c2)CCC3)c2nc(Nc3ccc(CCN4CCOCC4)cc3)ncc2c1=O | 24 | 5.4 | – | – | – | – | – | –
15 | CONC(=O)c1cn(-c2ccc3c(c2)CCC3)c2nc(Nc3ccc(OC)nc3)ncc2c1=O | – | – | 5.2 | – | – | – | – | –
16 | CN1CCN(c2ccc(Nc3ncc4c(=O)c(C(N)=O)cn(-c5ccc6c(c5)CCC6)c4n3)cc2)CC1 | – | – | – | – | – | – | 0 | –
17 | CCONC(=O)c1cn(-c2ccc3c(c2)CCC3)c2nc(Nc3ccc(CCN4CCN(C)CC4)cc3)ncc2c1=O | 84 | – | – | – | – | – | – | –
18 | CONC(=O)c1cn(-c2ccc3c(c2)CCC3)c2nc(Nc3ccc(CCS(=O)(=O)NC(C)=O)cc3)ncc2c1=O | 83 | 84 | – | – | – | – | – | –
19 | CCc1cccc(-n2cc(C(=O)NOC)c(=O)c3cnc(Nc4ccc(C5CCN(C)CC5)cc4)nc32)c1 | – | – | 0.4 | – | – | – | – | –
20 | CN1CCN(CCc2ccc(Nc3ncc4c(=O)c(C(=O)NCCO)cn(-c5ccc6c(c5)CCC6)c4n3)cc2)CC1 | 84 | – | 0.7 | – | – | – | – | –
21 | CNC(=O)c1cn(-c2ccc3c(c2)CCC3)c2nc(Nc3ccc(CCN4CCN(C)CC4)cc3)ncc2c1=O | 73 | – | 1.2 | – | – | – | – | –
22 | CONC(=O)c1cn(-c2ccc3c(c2)CCC3)c2nc(NCc3ccccc3)ncc2c1=O | – | – | 75 | – | – | – | – | –
23 | CONC(=O)c1cn(-c2ccc3c(c2)CCC3)c2nc(Nc3ccc(CCN4CCN(C)CC4)cc3)ncc2c1=O | 78 | – | 0.7 | 4.5 | 4 | 1.5 | 57 | IC50 [4]: 36 nM; IC50 [5]: 6 nM; IC50 [6]: 5300 nM; IC50 [7]: > 500 nM; IC50 [8]: > 500 nM; IC50 (Insulin receptor): 19800 nM; IC50 [9]: 1500 nM; Cmax [14]: 2700 nM; half-life [15]: 6.5 h
24 | CONC(=O)c1cn(-c2ccc3c(c2)CCC3)c2nc(Nc3ccc(C4CCN(C)CC4(F)F)cc3)ncc2c1=O (centres undefined) | 44 | 16 | 0.7 | – | – | – | – | –
25 | CNC(=O)c1cn(-c2ccc3c(c2)CCC3)c2nc(Nc3ccc(CCN4CCOCC4)cc3)ncc2c1=O | 100 | – | 1.4 | 0.7 | 47 | 2.6 | 4 | Cmax [14]: 130 nM; half-life [15]: 1.8 h
26 | CONC(=O)c1cn(-c2ccc3c(c2)CCC3)c2nc(Nc3ccc(C4CCN(CCO)CC4)cc3)ncc2c1=O | 100 | 80 | – | 3 | 34 | 8.8 | 8 | Cmax [14]: 130 nM
